Assay results: patent EP2177216A1, “Use of dianhydrohexite mononitrate derivatives as healing agents” (LACER, S.A., priority 2008, dated 2010)

Tested on: full thickness wound (2 x 2 cm)
Experiment: Wound healing (wound contraction and re-epithelialization) after topical hydrogel application to a full thickness skin wound in rats
Type: in vivo, Male Wistar rats
Method: Male Wistar rats provided by Janvier, Espana weighing 150 - 200 g were housed in our animal facilities in groups of 3 animals, being each group in a conventional animal facility where the environmental temperature and relative humidity are monitored and controlled. The lighting schedule in the animal facility is 12 hours light and 12 hours dark. The rats were used after an acclimatization period of five days. After a week quarantine period animals were dosed.
The solutions were allowed to attain dissolution equilibrium for a period of 8 h. The appropriate amount of compound of formula (I) was added to the hydrogel solution for homogenization. […] The hydrogels were used immediately after preparation.
Rats were anesthetized with sodium pentobarbital (40 mg/kg, i.p.) before treatments application to keep the animal calm to allow absorption of the products.
The dorsal surface was shaved and a full thickness wound (2 x 2 cm) was made on the back of each rat by removing the skin (epidermis and dermis) and exposing paniculus carnosus.
Groups of 5 rats for treatment were used, and 0.5 g of hydrogel was topically applied in a wound (2 x 2 cm) on the back of each rat.
Treatments were applied from the first day until fourth day after wounding. […] From the fifth day post-wounding, lesions were left uncovered in all groups. The animals were housed in individual cages with free access to food and water. […]
The area of the wounds (cm^2) and % re-ephitelización were estimated by the difference between the total lesion area and the wound area still uncovered.
The efficacy of treatments was evaluated by measuring wound area and percentage of re-epithelialization vs total wound area.

[1] = day 5, 0.5 g of hydrogel topically applied from first until fourth day after wounding, groups of 5 rats
[2] = day 8, 0.5 g of hydrogel topically applied from first until fourth day after wounding, initial wound 2 x 2 cm
[3] = versus control hydrogel, from wound area at day 8

| Compound | % Re-epithelialization (day 5) [1] | Wound area (cm^2) (day 8) [2] | % Wound reduction vs control [3] | % Re-epithelialization (day 5) (rat, in vivo) | % Wound reduction vs control (rat, in vivo) | Wound area (cm^2) (day 8) (rat, in vivo) |
| --- | --- | --- | --- | --- | --- | --- |
| CC(=O)S[C@H]1CO[C@H]2[C@@H]1OC[C@H]2O[N+](=O)[O-] [Compound 1, 2-acetylthioisosorbide 5-mononitrate] | 100% | 1.2 cm^2 | 66% | – | – | – |
| CS[C@H]1CO[C@H]2[C@@H]1OC[C@H]2O[N+](=O)[O-] [Compound 4, 2-Methylthioisosorbide 5-mononitrate] | 100% | 1.1 cm^2 | 69% | – | – | – |
| O=[N+]([O-])O[C@@H]1CO[C@H]2[C@@H]1OC[C@@H]2O [Compound 7, Isosorbide 5-mononitrate, reference compound] | – | – | – | 60% | 60% | 1.4 cm^2 |
| O=[N+]([O-])O[C@@H]1CO[C@H]2[C@@H]1OC[C@@H]2SS[C@H]1CO[C@H]2[C@@H]1OC[C@H]2O[N+](=O)[O-] [Compound 3, 5'5'-dinitrato-2,2'ditioisosorbide] | 100% | 1.7 cm^2 | 51% | – | – | – |
| CS(=O)(=O)[C@H]1CO[C@H]2[C@@H]1OC[C@H]2O[N+](=O)[O-] [Compound 5, 2-Methylsulfonylisosorbide 5-mononitrate] | 90% | 1.7 cm^2 | 51% | – | – | – |
| CC(=O)S[C@@H]1CO[C@H]2[C@@H]1OC[C@H]2O[N+](=O)[O-] [Compound 2, 2-acetylthioisomanide 5-mononitrate] | 100% | 1.4 cm^2 | 60% | – | – | – |
| CCC[S+]([O-])[C@H]1CO[C@H]2[C@@H]1OC[C@H]2O[N+](=O)[O-] (stereo partly drawn) [Compound 6, 2-[(R,S)-propylsulfinyl]isosorbide 5-mononitrate] | 90% | 1.1 cm^2 | 69% | – | – | – |
